In EP4722201A1, “3-PHENYLISOXAZOLINE-5-CARBOXAMIDE COMPOUND, AND PREPARATION METHOD THEREFOR, HERBICIDAL COMPOSITION THEREOF AND USE THEREOF” (Jiangsu Flag Chemical Industry Co., Ltd, priority 2023, dated 2024):

Legend:
Assay type in all cases: in vivo
Cyperus iria [1] = assay: Indoor herbicide activity determination, post-emergence (stem and leaf spray at 2-4 leaf stage); conditions: 504 h, determined 21 days later, read-out: Inhibition rate of fresh weight, Cyperus iria; for inhibition at 60 g/ha: 60 g a.i./ha; for inhibition at 30 g/ha: 30 g a.i./ha
In short: (§1)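 Potted weeds in sandy nutrient soil (pH 6.1, 1% organic matter) were grown in a constant-temperature illuminated room to the 2-4 leaf stage, then given a stem-and-leaf spray. Plants went back to the culture room once the spray had dried in shade. At 21 days, fresh weight inhibition % was calculated relative to untreated control plants.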

Digitaria sanguinalis [2] = assay: as above; conditions: 504 h, determined 21 days later, read-out: Inhibition rate of fresh weight, Digitaria sanguinalis; for inhibition at 60 g/ha: 60 g a.i./ha; for inhibition at 30 g/ha: 30 g a.i./ha
In short: as §1

Eclipta prostrata [3] = assay: as above; conditions: 504 h, determined 21 days later, read-out: Inhibition rate of fresh weight, Eclipta prostrata; for inhibition at 60 g/ha: 60 g a.i./ha; for inhibition at 30 g/ha: 30 g a.i./ha
In short: as §1

Lolium multiflorum = assay: Indoor herbicide activity determination, Seed Treatment; pre-emergence (soil spray)
In short: (§2)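 Herbicide was applied to soil before weed emergence, 24 h after sowing, by tower spraying. Plants grew at constant temperature with illumination, and fresh weight compared with untreated pots gave % inhibition after 21 days.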

Cyperus iria [4] = assay: as above; conditions: read-out: Herbicidal activities (inhibition rate) Cyperus iria; for inhibition at 120 g/ha: 120 g a.i./ha; for inhibition at 60 g/ha: 60 g a.i./ha
In short: as §2

Leptochloa chinensis = assay: as above
In short: as §2

Alopecurus japonicus = assay: as above
In short: as §2

Digitaria sanguinalis [5] = assay: as above; conditions: read-out: Herbicidal activities (inhibition rate) Digitaria sanguinalis; for inhibition at 120 g/ha: 120 g a.i./ha; for inhibition at 60 g/ha: 60 g a.i./ha
In short: as §2

Eclipta prostrata [6] = assay: as above; conditions: read-out: Herbicidal activities (inhibition rate) Eclipta prostrata; for inhibition at 120 g/ha: 120 g a.i./ha; for inhibition at 60 g/ha: 60 g a.i./ha
In short: as §2

Aegilops tauschii = assay: as above; conditions: read-out: Herbicidal activities (inhibition rate) Aegilops tauschii; for inhibition at 120 g/ha: 120 g a.i./ha; for inhibition at 60 g/ha: 60 g a.i./ha
In short: as §2

Eleusine indica = assay: as above
In short: as §2

Alopecurus myosuroides = assay: as above
In short: as §2

Row | Structure (SMILES) | inhibition at 60 g/ha (Cyperus iria [1]) | inhibition at 60 g/ha (Digitaria sanguinalis [2]) | inhibition at 60 g/ha (Eclipta prostrata [3]) | Herbicidal activities, Lolium multiflorum (inhibition rate class) (Lolium multiflorum; Dosage 240 g a.i./ha) | Herbicidal activities, Leptochloa chinensis (inhibition rate class) (Leptochloa chinensis; Dosage 240 g a.i./ha) | Herbicidal activities, Alopecurus japonicus (inhibition rate class) (Alopecurus japonicus; Dosage 240 g a.i./ha) | Herbicidal activities, Eleusine indica (inhibition rate class) (Eleusine indica; Dosage 240 g a.i./ha) | Herbicidal activities, Alopecurus myosuroides (inhibition rate class) (Alopecurus myosuroides; Dosage 240 g a.i./ha) | inhibition at 30 g/ha (Cyperus iria [1]) | inhibition at 30 g/ha (Digitaria sanguinalis [2]) | inhibition at 30 g/ha (Eclipta prostrata [3]) | inhibition at 60 g/ha (Cyperus iria [4]) | inhibition at 60 g/ha (Digitaria sanguinalis [5]) | inhibition at 60 g/ha (Eclipta prostrata [6]) | inhibition at 60 g/ha (Aegilops tauschii) | further results
1 | O=C(N[C@H]1C[C@@H](C(=O)O)C1)C1(C(F)(F)F)CC(c2cc(F)cc(F)c2)=NO1 (mixture of isomers) [I-206] | 80 to 100% | 80 to 100% | 80 to 100% | A (A indicates that the inhibition rate was greater than or equal to 80% to 100%) | A (A indicates that the inhibition rate was greater than or equal to 80% to 100%) | A (A indicates that the inhibition rate was greater than or equal to 80% to 100%) | A (A indicates that the inhibition rate was greater than or equal to 80% to 100%) | A (A indicates that the inhibition rate was greater than or equal to 80% to 100%) | – | – | – | – | – | – | – | inhibition at 120 g/ha (Cyperus iria [4]): 80 to 100%; inhibition at 120 g/ha (Digitaria sanguinalis [5]): 80 to 100%; inhibition at 120 g/ha (Eclipta prostrata [6]): 60 to 80%; inhibition at 120 g/ha (Aegilops tauschii): 80 to 100%
2 | COC(=O)[C@H]1C[C@@H](NC(=O)C2(C(F)(F)F)CC(c3cc(F)cc(F)c3)=NO2)C1 (mixture of isomers) [I-208] | 80 to 100% | 80 to 100% | 80 to 100% | A (A indicates that the inhibition rate was greater than or equal to 80% to 100%) | A (A indicates that the inhibition rate was greater than or equal to 80% to 100%) | A (A indicates that the inhibition rate was greater than or equal to 80% to 100%) | A (A indicates that the inhibition rate was greater than or equal to 80% to 100%) | A (A indicates that the inhibition rate was greater than or equal to 80% to 100%) | – | – | – | – | – | – | – | inhibition at 120 g/ha (Cyperus iria [4]): 80 to 100%; inhibition at 120 g/ha (Digitaria sanguinalis [5]): 80 to 100%; inhibition at 120 g/ha (Eclipta prostrata [6]): 80 to 100%; inhibition at 120 g/ha (Aegilops tauschii): 80 to 100%
3 | C=C(F)C1(C(=O)N[C@H]2C[C@@H](C(=O)OC)C2)CC(c2cc(F)cc(F)c2)=NO1 (relative stereo) [I-356] | 80 to 100% | 60 to 80% | 40 to 60% | A (A indicates that the inhibition rate was greater than or equal to 80% to 100%) | A (A indicates that the inhibition rate was greater than or equal to 80% to 100%) | A (A indicates that the inhibition rate was greater than or equal to 80% to 100%) | A (A indicates that the inhibition rate was greater than or equal to 80% to 100%) | A (A indicates that the inhibition rate was greater than or equal to 80% to 100%) | – | – | – | – | – | – | – | –
4 | COC(=O)[C@@H]1CC[C@H](NC(=O)[C@@]2(C(F)(F)F)CC(c3cc(F)cc(F)c3)=NO2)C1 [CK3, reference compound] | – | – | – | – | – | – | – | – | 40 to 60% | 40 to 60% | < 20% | 40 to 60% | 60 to 80% | 60 to 80% | 40 to 60% | –
5 | COC(=O)[C@H]1CC[C@@H](NC(=O)[C@@]2(C(F)(F)F)CC(c3cc(F)cc(F)c3)=NO2)C1 [CK4, reference compound] | – | – | – | – | – | – | – | – | 20 to 40% | 20 to 40% | < 20% | 40 to 60% | < 20% | < 20% | < 20% | –
6 | O=C(O)[C@@H]1CC[C@H](NC(=O)[C@@]2(C(F)(F)F)CC(c3cc(F)cc(F)c3)=NO2)C1 [CK5, reference compound] | – | – | – | – | – | – | – | – | 40 to 60% | 40 to 60% | < 20% | 60 to 80% | 60 to 80% | 40 to 60% | 20 to 40% | –
7 | O=C(O)[C@H]1CC[C@@H](NC(=O)[C@@]2(C(F)(F)F)CC(c3cc(F)cc(F)c3)=NO2)C1 [CK6, reference compound] | – | – | – | – | – | – | – | – | 20 to 40% | 20 to 40% | < 20% | 40 to 60% | < 20% | < 20% | < 20% | –
8 | C=CC1(C(=O)N[C@H]2C[C@@H](C(=O)O)C2)CC(c2cc(F)cc(F)c2)=NO1 (some centres unmarked) [I-1] | 80 to 100% | 80 to 100% | 60 to 80% | A (A indicates that the inhibition rate was greater than or equal to 80% to 100%) | A (A indicates that the inhibition rate was greater than or equal to 80% to 100%) | A (A indicates that the inhibition rate was greater than or equal to 80% to 100%) | A (A indicates that the inhibition rate was greater than or equal to 80% to 100%) | A (A indicates that the inhibition rate was greater than or equal to 80% to 100%) | – | – | – | – | – | – | – | inhibition at 120 g/ha (Cyperus iria [4]): 80 to 100%; inhibition at 120 g/ha (Aegilops tauschii): 80 to 100%
9 | C=C[C@]1(C(=O)N[C@H]2C[C@@H](C(=O)OC)C2)CC(c2cc(F)cc(F)c2)=NO1 [I-4] | – | – | – | – | – | – | – | – | 80 to 100% | 80 to 100% | 60 to 80% | 80 to 100% | 80 to 100% | 80 to 100% | – | Herbicidal activities, Lolium multiflorum (inhibition rate class) (Lolium multiflorum; Dosage 120 g a.i./ha): A (A indicates that the inhibition rate was greater than or equal to 80% to 100%); Herbicidal activities, Leptochloa chinensis (inhibition rate class) (Leptochloa chinensis; Dosage 120 g a.i./ha): A (A indicates that the inhibition rate was greater than or equal to 80% to 100%); Herbicidal activities, Alopecurus japonicus (inhibition rate class) (Alopecurus japonicus; Dosage 120 g a.i./ha): A (A indicates that the inhibition rate was greater than or equal to 80% to 100%); Herbicidal activities, Eleusine indica (inhibition rate class) (Eleusine indica; Dosage 120 g a.i./ha): A (A indicates that the inhibition rate was greater than or equal to 80% to 100%); Herbicidal activities, Alopecurus myosuroides (inhibition rate class) (Alopecurus myosuroides; Dosage 120 g a.i./ha): A (A indicates that the inhibition rate was greater than or equal to 80% to 100%)
10 | C=C[C@]1(C(=O)N[C@H]2C[C@@H](C(=O)OCC)C2)CC(c2cc(F)cc(F)c2)=NO1 [I-5] | – | – | – | – | – | – | – | – | 80 to 100% | 80 to 100% | 40 to 60% | 60 to 80% | 80 to 100% | – | 80 to 100% | Herbicidal activities, Lolium multiflorum (inhibition rate class) (Lolium multiflorum; Dosage 120 g a.i./ha): A (A indicates that the inhibition rate was greater than or equal to 80% to 100%); Herbicidal activities, Leptochloa chinensis (inhibition rate class) (Leptochloa chinensis; Dosage 120 g a.i./ha): A (A indicates that the inhibition rate was greater than or equal to 80% to 100%); Herbicidal activities, Alopecurus japonicus (inhibition rate class) (Alopecurus japonicus; Dosage 120 g a.i./ha): A (A indicates that the inhibition rate was greater than or equal to 80% to 100%); Herbicidal activities, Eleusine indica (inhibition rate class) (Eleusine indica; Dosage 120 g a.i./ha): A (A indicates that the inhibition rate was greater than or equal to 80% to 100%); Herbicidal activities, Alopecurus myosuroides (inhibition rate class) (Alopecurus myosuroides; Dosage 120 g a.i./ha): A (A indicates that the inhibition rate was greater than or equal to 80% to 100%)
11 | C=C[C@]1(C(=O)N[C@H]2C=C[C@@H](C(=O)OCC(C)C)C2)CC(c2cc(F)cc(C(F)(F)F)c2)=NO1 [I-438] | – | – | – | – | – | – | – | – | 60 to 80% | 60 to 80% | 60 to 80% | 80 to 100% | – | 80 to 100% | – | Herbicidal activities, Leptochloa chinensis (inhibition rate class) (Leptochloa chinensis; Dosage 120 g a.i./ha): A (A indicates that the inhibition rate was greater than or equal to 80% to 100%); Herbicidal activities, Eleusine indica (inhibition rate class) (Eleusine indica; Dosage 120 g a.i./ha): A (A indicates that the inhibition rate was greater than or equal to 80% to 100%)
12 | C=C[C@]1(C(=O)N[C@H]2CO[C@@H](C(=O)O)C2)CC(c2cc(F)cc(F)c2)=NO1 [icafolin, reference compound] | – | – | – | – | – | – | – | – | 40 to 60% | 40 to 60% | < 20% | 20 to 40% | 20 to 40% | < 20% | 40 to 60% | –
13 | C=CC1(C(=O)NC2COC(C(=O)OC)C2)CC(c2cc(F)cc(F)c2)=NO1 (centres unmarked) [icafolin-methyl, reference compound] | – | – | – | – | – | – | – | – | 40 to 60% | 40 to 60% | 40 to 60% | 20 to 40% | 20 to 40% | 40 to 60% | 40 to 60% | –
